Marks after values point to notes of the source that are not given here.
How the values were obtained:
[1] = system: CD8+ T cells and CD4+/FoxP3+ Treg cells; experiment: Proliferation of CD8+ T cells and Treg cells in PBMCs (Exp. Ex. 10); assay type: cell-based, human; conditions: for proportion of CD8+ T cells: anti-CD3ε 1 μg/ml, 7 days, compared with no stimulus, anti-CD3 antibody alone and GI101C1; for proliferation of CD4+/FoxP3+ Treg cells: compared with no stimulus and anti-CD3 antibody alone
Description: Human PBMCs were purchased from Allcells (Lot #3014928, USA). […] CellTrace CFSE dye was used, which was reacted with the human PBMCs under a light-blocking condition at […] for 20 minutes. The cells were labeled with CFSE by being reacted with 1 μM CellTrace CFSE dye at 37° C. for 20 minutes. CFSE not bound to the cells was removed by being reacted for 5 minutes with a culture medium having a 5-fold volume of the staining reaction solution and then by being centrifuged at 1,300 rpm for 5 minutes. The CFSE-labeled PBMCs were resuspended in the culture medium (RPMI1640 medium containing 10% fetal bovine serum, 10 mM HEPES, 100 U/ml penicillin/streptomycin, 1 mM sodium pyruvate, 55 μM 2-mercaptoethanol, 1 mM non-essential amino acid, and 2 mM L-glutamine), and then added to a 96-well microplate at 1×10^5 cells per well.
The incubated cells were examined for their degree of proliferation by measuring, with FACS analysis using anti-human CD4-PE antibody (BioLegend, USA), anti-human CD8-PE/Cy7 antibody (BioLegend, USA), and anti-human FoxP3-APC antibody (BioLegend, USA), a proportion of CD8+ T cells that had not been labeled with CFSE.

[2] = system: CT26 (mouse colon carcinoma) cells; experiment: mGI-101 and Galunisertib in CT26 allotransplanted tumor model; assay type: in vivo, BALB/cAnHsd mice; conditions: mean ± SD, mGI-101 3 mg/kg IP, Galunisertib 75 mg/kg PO
Description: 6-week-old male BALB/cAnHsd mice were purchased and used for the test.
The tumor size was measured three times a week for 3 weeks from the day of start of administration of the test substance. The major axis and minor axis of the tumor were measured using a caliper, and the tumor size (tumor volume, TV) was calculated using the following equations. TV (mm^3)=(W^2×L)/2 [Equation 1]

MDA-MB-231 cells = experiment: GI101 and Keytruda in humanized mice xenotransplanted with MDA-MB-231; assay type: in vivo, human
Description: Fetal bovine serum (FBS, 16000-044, Thermofisher scientific, USA), penicillin-streptomycin; 10,000 units/ml penicillin and 10,000 μg/ml streptomycin (15140122, Thermofisher scientific, USA); and RPMI1640 (A1049101, Thermofisher scientific, USA) per 100 ml were mixed and used.
The cells were suspended using Trypsin-EDTA (Cat. 25200-072, Thermofisher scientific, USA). The suspended cells were collected by centrifugation (125×g, 5 minutes) using a centrifuge, transferred to a new medium and a new flask, and passage cultured. The cultured cells were put to a centrifugation tube on the day of cell line transplantation and then collected. […] 8-week-old female NSGb2m (NOD.Cg-B2m^tm1UncPrkdc^scidIl2rg^tm1Wjl/SzJ) mice were purchased from Joongang Bio (Korea) and used for the test. The body weight was measured the next day after the end of the quarantine and acclimation period, and then the human-derived PBMC cell suspension (5×10^6 cells/0.2 ml) prepared for healthy animals was filled into a disposable syringe and administered to the caudal vein of the animals. General symptoms were observed once a day after cell transplantation.
A certain period of time after the cell transplantation, the tumor volume was measured for animals with no abnormalities in the health condition of the animals, and 32 subjects were selected so that the average of each group reached 40 to 80 mm^3. The selected animals were grouped into a total of 4 groups as evenly as possible based on tumor volume and body weight, each group including 8 animals.
General symptoms such as appearance, behavior, and excrement were observed once a day during the observation period, and deceased animals were identified. Body weight was measured on the day of cell line transplantation, twice a week, and on the day of animal sacrifice. The major axis (maximum length, L) and minor axis (perpendicular width, W) of the tumor were measured using a caliper (Digital caliper, mitutoyo, Japan) three times a week during the observation period, and the tumor volume (TV) was calculated by substituting them into the following equations.
(§1) The tumor volume before administration of each subject was set as the value measured at the time of grouping.

EMT6 cells = experiment: mGI-101 and Paclitaxel in EMT6 allotransplanted tumor model; assay type: in vivo, BALB/c mice
Description: EMT6 cells were purchased from ATCC (USA) and cultured in Waymouth MB 751/1 medium (WELGENE) containing 10% FBS (Gibco) and 1% antibiotic/antifungal agent (Gibco). The cultured cells were harvested using trypsin (Gibco), and then a high-concentration cell suspension (2×10^6 cells/0.4 mL) for 10 mice was prepare with PBS and stored on ice until injected into mice. In order to establish an allotransplanted tumor model, the skin was incised slightly away from the 4th nipple position from the upper right of the ventral region of BALB/c female mice (7-week-old), and the location of mammary fat pad at the incised site was identified, and then EMT6 cell line prepared inside the mammary fat pad was injected at 2×10^5 cells/40 uL/head.
A certain period of time after cell inoculation of the tumor grafts of the mice, the tumor volume was measured for animals with no abnormalities in the health condition of the animals, and the subjects were selected so that the average of each group reached less than 70-100 mm^3, and the selected animals were assigned as evenly as possible based on tumor volume and body weight, each group including 10 animals. As shown in Table 24 and FIG. 106, the test groups were configured and the test substances were administered.
(§2) Clinical symptoms such as a disease and a behavioral change were observed once a day during the test period, and deceased animals were identified, and the mice were sacrificed when the tumor size reached a size of 4,000 mm^3.
(§3) The tumor volume before administration of each subject was set as the value measured at the time of grouping, and the anti-tumor efficacy was evaluated as compared with the vehicle control.
(§4) All statistical calculations were performed using Prism 8.0 (Graph Pad Software Inc, USA). The comparison of tumor volume measurements was made through two-way analysis of variance followed by Tukey's multiple comparison test. A p value of less than 0.05 was considered significant.

Renca cells = experiment: mGI-101 and Lenvatinib in Renca allotransplanted tumor model; assay type: in vivo, BALB/c mice; conditions: mGI-101 twice a week (BIW), Lenvatinib daily, 10 mice per group
Description: (§5) Renca cells were purchased from ATCC (USA) and cultured in RPMI1640 medium (Gibco) containing 10% FBS (Gibco) and 1% antibiotic/antifungal agent (Gibco). The cultured cells were harvested using trypsin (Gibco) and then suspended in PBS. In order to establish an allotransplanted tumor model, 5×10^6 Renca cells were subcutaneously injected into the back of BALB/c female mice (8-week-old).
A certain period of time after cell inoculation of the tumor grafts of the mice, the tumor volume was measured for animals with no abnormalities in the health condition of the animals, and the mice were randomly selected and assigned, each group including 10 mice.
The death of the mouse, the type of general symptoms, the date of onset, and the severity of symptoms were observed once a day during the test period, and recorded for each subject.
as §3, §4

CT26 cells [3] = experiment: mGI-101 and Lenvatinib in CT26 allotransplanted tumor model; assay type: in vivo, BALB/c mice
Description: as §5, with “CT26” for “Renca”, “1×10^6 CT26” for “5×10^6 Renca”, “right flank” for “back”, “(7-week-old).” for “(8-week-old).”
A certain period of time after the cell transplantation, the tumor volume was measured for animals with no abnormalities in the health condition of the animals, and the mice were assigned so that the average tumor volume of each group was less than 70-100 mm^3, each group including 10 mice.
In the case of Lenvatinib powder, the dose was calculated and weighed, and it was prepared to the dose concentration using a 0.5% methyl cellulose excipient. In order to minimize the loss of the test substance, the doses for 3 or 4 days were weighed, and prepared using the excipient on the day of administration and injected.
as §2, §1, §4

CT26 cells [4] = experiment: mGI-101 and Axitinib in CT26 allotransplanted tumor model; conditions: mGI-101 3 mg/kg IP, Axitinib 30 mg/kg PO;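 also: subcutaneous CT26 syngeneic tumors in male BALB/c mice, dosing started once tumors were near 50 mm^3, drugs given orally or intraperitoneally for up to 3 weeks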
Description: (§6) Mouse-derived colorectal cancer cells, CT26 (Mus musculus, Colon adenocarcinoma), and mouse-derived lung cancer cells, LL/2 (Mus musculus, Lung adenocarcinoma), were purchased from ATCC (USA) and used for the test. The cells to be used for the test were thawed, mixed with RPMI1640 (A1049101, Thermofisher scientific) medium containing 10% FBS (fetal bovine serum, Gibco, 10082-147), and then placed in a cell culture flask, and cultured in a 37° C., 5% CO2 incubator. The cells were washed with PBS, and then the cells were isolated using Trypsin-EDTA (15090, Gibco), and centrifugation (125×g, 5 minutes) was performed to discard the supernatant, and then the cells were suspended in a new medium to obtain the cell suspension. The viability of the cells was identified, and then a cell line was prepared by diluting in a medium to a concentration of 5.0×10^6 cells/mL.
(§7) 6-week-old male BALB/cAnHsd mice or C57BL/6NHsd mice were purchased and used for the test. After the end of the acclimation period of 7 days, the cells were transplanted into healthy animals. The cell suspension (5×10^6 cells/mL) was dispensed, and filled into a disposable syringe, and transplantation of the suspension was performed by subcutaneous administration at 0.1 mL/head in the right dorsal region of the animals. General symptoms were observed once a day during the engraftment and growth period after cell line transplantation.
(§8) After the inoculation of the cell line was performed, when the tumor size at the site to which the cell line was transplanted reached about 50 mm^3, the tumor size of each group was distributed as uniformly as possible according to the ranked tumor size.
(§9) The test substance was administered orally or intraperitoneally, and administered for 3 weeks depending on the composition of the test group. In the case of oral administration, the animals were fixed with the cervical spine skin fixation method, and administered directly into the stomach using a sonde for oral administration. In the case of intraperitoneal administration, the animals were fixed with the cervical spine skin fixation method, and administered intraperitoneally using a syringe equipped with a 26 gauge needle. The administration rate was not to exceed 200 μl/min.
Syngeneic model was prepared by subcutaneously transplanting the CT26 cell line into Balb/c mice, and then the test substance was administered to evaluate the anticancer effect.

LL/2 cell line = experiment: mGI-101 and Axitinib in LL/2 allotransplanted tumor model; assay type: in vivo, C57BL/6 mice; conditions: mGI-101 3 mg/kg IP, Axitinib 30 mg/kg PO
Description: as §6, §7, §8, §9
Syngeneic model was prepared by subcutaneously transplanting the LL/2 cell line into C57BL/6 mice, and then the test substance was administered to evaluate the anticancer effect.

[5] = day 42 vs day 21 after tumor transplantation, 8 animals per group
[6] = end of the experiment, 10 mice per group

## GI101C2: comparative fusion protein: Fc domain, linker, IL-2 variant (2M) (R38A, F42A); SEQ ID NO: 19
[1]
  proportion of CD8+ T cells: significant increase
  proliferation of CD4+/FoxP3+ Treg cells: significant increase

## Cc1cccc(-c2nn3c(c2-c2ccnc4ccc(C(N)=O)cc24)CCC3)n1 [Galunisertib, reference compound]
[2]; Day 0
  Tumor size: 61.98 ± 12.23 mm^3
[2]; Day 2
  Tumor growth inhibition: 15.60 ± 38.26%
  Tumor size: 187.20 ± 55.14 mm^3
[2]; Day 4
  Tumor growth inhibition: 34.09 ± 27.14%
  Tumor size: 260.69 ± 78.70 mm^3
[2]; Day 7
  Tumor growth inhibition: 21.12 ± 34.98%
  Tumor size: 398.78 ± 146.30 mm^3

## Keytruda: Keytruda (Pembrolizumab, MSD), an anti-PD-1 antibody [reference compound]
MDA-MB-231 cells; GI101 6 mg/kg, Keytruda 5 mg/kg, 4 administrations, compared with the control (hIgG4)
  tumor growth: tumor growth inhibition
MDA-MB-231 cells; [5]
  number of mice with tumor growth inhibition rate of 30% or more: 7 mice
  number of mice with tumor growth inhibition rate of 50% or more: 5 mice
  number of mice with tumor growth inhibition rate of 80% or more: 3 mice

## CC(=O)O[C@H]1C(=O)[C@@]2(C)[C@H]([C@H](OC(=O)c3ccccc3)[C@]3(O)C[C@H](OC(=O)[C@H](O)[C@@H](NC(=O)c4ccccc4)c4ccccc4)C(C)=C1C3(C)C)[C@]1(OC(C)=O)CO[C@@H]1C[C@@H]2O [Paclitaxel, reference compound]
EMT6 cells; EMT6, 10 animals per group
  number of mice with tumor growth inhibition rate of 30% or more: 7 mice
  number of mice with tumor growth inhibition rate of 50% or more: 4 mice
  number of mice with tumor growth inhibition rate of 80% or more: 2 mice
EMT6 cells; day 13, mGI-101 3 mg/kg i.v. QW, Paclitaxel 10 mg/kg i.p. 7 consecutive days
  tumor size vs control: statistically significantly lower

## Proleukin: Proleukin (Novartis, hIL-2); human recombinant IL-2 [reference compound]
[1]
  proportion of CD8+ T cells: significant increase
  proliferation of CD4+/FoxP3+ Treg cells: significant increase

## COc1cc2nccc(Oc3ccc(NC(=O)NC4CC4)c(Cl)c3)c2cc1C(N)=O [Lenvatinib]
Renca cells
  number of mice with tumor growth inhibition rate of 30% or more: 4 mice
  number of mice with tumor growth inhibition rate of 50% or more: 2 mice
  number of mice with tumor growth inhibition rate of 80% or more: no mouse
CT26 cells [3]; [6]
  number of mice with tumor growth inhibition rate of 30% or more: 6 mice
  number of mice with tumor growth inhibition rate of 50% or more: 4 mice
  number of mice with tumor growth inhibition rate of 80% or more: 1 mice
CT26 cells [3]; mGI-101 3 mg/kg i.v. QW, Lenvatinib 3 mg/kg p.o. daily, Lenvatinib day 18, 21, combination day 16, 18, 21
  anticancer effect (tumor size) compared with the control: statistically significant anticancer effect

## CNC(=O)c1ccccc1Sc1ccc2c(/C=C/c3ccccn3)n[nH]c2c1 [Axitinib, reference compound]
CT26 cells [4]; Day 0, mean ± SD
  Tumor size: 61.67 ± 12.58 mm^3
CT26 cells [4]; Day 5, mean ± SD
  Tumor size: 261.76 ± 61.86 mm^3
CT26 cells [4]; Day 7, mean ± SD
  Tumor size: 354.05 ± 104.90 mm^3
CT26 cells [4]; Day 9, mean ± SD
  Tumor size: 442.98 ± 148.70 mm^3
CT26 cells [4]; Day 12, mean ± SD
  Tumor size: 529.85 ± 206.76 mm^3
CT26 cells [4]; Day 14, mean ± SD
  Tumor size: 671.72 ± 303.14* mm^3
CT26 cells [4]; Day 16, mean ± SD
  Tumor size: 970.72 ± 475.99** mm^3
CT26 cells [4]; Day 19, mean ± SD
  Tumor size: 1129.12 ± 639.16**** mm^3
CT26 cells [4]; Day 21, mean ± SD
  Tumor size: 1710.57 ± 1133.79**** mm^3
LL/2 cell line; Day 0, mean ± SD
  Tumor size: 55.77 ± 11.25 mm^3
LL/2 cell line; Day 2, mean ± SD
  Tumor size: 88.73 ± 21.26 mm^3
LL/2 cell line; Day 5, mean ± SD
  Tumor size: 179.31 ± 52.62 mm^3
LL/2 cell line; Day 7, mean ± SD
  Tumor size: 362.30 ± 97.92 mm^3
LL/2 cell line; Day 9, mean ± SD
  Tumor size: 584.17 ± 172.94 mm^3
LL/2 cell line; Day 12, mean ± SD
  Tumor size: 892.90 ± 256.88 mm^3
LL/2 cell line; Day 14, mean ± SD
  Tumor size: 1292.27 ± 385.43 mm^3
LL/2 cell line; Day 16, mean ± SD
  Tumor size: 1775.26 ± 462.50 (9) mm^3
LL/2 cell line; Day 19, mean ± SD
  Tumor size: 2551.08 ± 695.31 (9) mm^3
LL/2 cell line; Day 21, mean ± SD
  Tumor size: 4236.33 ± 1060.18 (9)**^,## mm^3
